Each block holds one compound with its values, some of them ahead of it.
What was measured:
[1] = test system: HDAC2, p-FAK, p-Akt in A-498 cells; assay: Resistance development assay, Western blot of HDAC2, p-FAK, FAK, p-Akt, Akt
A-498 cells [2] = assay: Resistance development assay; conditions: Homo sapiens, A498, read-out: IC50 on pretreated A-498 cells
[3] = test system: renal cancer cell lines A-498 and Caki-1; assay: MTT assay, renal cancer cell lines; type: cell-based; conditions: for IC50: read-out: IC50 against the tested renal cancer cell lines; for GI% renal cancer cell lines A-498 and Caki-1: 10 μM, range over both cell lines
HCT116 = assay: MTT proliferation assay, HCT116; type: cell-based; conditions: Homo sapiens, HCT-116, 24 h, read-out: Growth inhibition (%) HCT116
K562 = assay: MTT proliferation assay, K562; type: cell-based; conditions: Homo sapiens, K562, 24 h, read-out: Growth inhibition (%) K562
[4] = test system: HCT116, HT-29, K562, KG-1, A-498 and Caki-1 cell lines; assay: MTT assay, all six tested cell lines; type: cell-based; conditions: 10 μM, range over six cell lines
HDAC1 = HDAC1 (Homo sapiens, UniProt Q13547); assay: Fluorogenic enzymatic assay HDAC1; type: biochemical
Chain of HDAC1 (Q13547 whole entry): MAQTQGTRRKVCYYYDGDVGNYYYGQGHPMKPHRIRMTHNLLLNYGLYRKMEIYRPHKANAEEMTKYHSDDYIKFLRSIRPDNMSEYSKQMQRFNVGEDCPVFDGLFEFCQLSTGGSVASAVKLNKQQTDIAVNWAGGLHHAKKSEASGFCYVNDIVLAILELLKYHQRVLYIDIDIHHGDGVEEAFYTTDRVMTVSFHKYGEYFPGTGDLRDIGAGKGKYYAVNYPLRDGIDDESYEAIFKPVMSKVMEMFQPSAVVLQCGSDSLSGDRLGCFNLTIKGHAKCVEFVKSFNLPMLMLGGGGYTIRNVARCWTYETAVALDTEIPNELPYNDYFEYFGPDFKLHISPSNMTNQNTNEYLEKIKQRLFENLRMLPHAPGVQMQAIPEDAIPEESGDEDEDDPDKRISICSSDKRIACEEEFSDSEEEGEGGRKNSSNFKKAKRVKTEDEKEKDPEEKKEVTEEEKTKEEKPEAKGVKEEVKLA

Caki-1 cells = assay: Cell cycle analysis by flow cytometry, Caki-1; type: cell-based; conditions: 24 h
caspase-3 = assay: Active caspase-3 ELISA in A-498 cells; type: cell-based, human; conditions: control 45.57
A-498 cells [5] = assay: Cell cycle analysis by flow cytometry, A-498; type: cell-based; conditions: 24 h
caspase-9 = assay: Caspase-9 ELISA in A-498 cells; type: cell-based, human; conditions: 24 h, control 4.53
[6] = test system: HDAC2 and FAK in A-498 cells; assay: Western blot of HDAC2 expression and FAK phosphorylation, A-498 cells; type: cell-based; conditions: 24 h at IC50, Western blot
STAT3 in A-498 cells = assay: Western blot of STAT3 activation; type: cell-based
caspase-8 = assay: Caspase-8 ELISA in A-498 cells; type: cell-based, human; conditions: 24 h, control 0.274
[7] = test system: HDAC2 and FAK in Caki-1 cells; assay: Western blot of HDAC2 expression and FAK phosphorylation, Caki-1 cells; type: cell-based; conditions: 24 h at IC50, Western blot
[8] = A-498 cells pretreated 12 weeks
[9] = A-498 cells, both pretreated (12 weeks) and not pretreated

- IC50 (A-498 cells [2]): 3090 µM
Structure (SMILES): CCCC(CCC)C(=O)O [VPA, valproic acid, reference compound]
- Akt phosphorylation [1, 8]: drastic overexpression
- HDAC2 expression [1, 8]: lower ability to inhibit

- IC50 [3]: 6.19 to 20.9 µM
Structure (SMILES): C=CCn1c(SCc2ccc(C(=O)NO)cc2)nnc1-c1ccncc1 [Compound 10c, 4-(((4-allyl-5-(pyridin-4-yl)-4H-1,2,4-triazol-3-yl)thio)methyl)-N-hydroxybenzamide]

- IC50 [3]: 6.19 to 20.9 µM
Structure (SMILES): Cn1c(SCc2ccc(C(=O)NO)cc2)nnc1-c1ccncc1 [Compound 10a, N-hydroxy-4-(((4-methyl-5-(pyridin-4-yl)-4H-1,2,4-triazol-3-yl)thio)methyl)benzamide]
- inhibition at 10 µM (HCT116): 32.4%

Structure (SMILES): Nc1ccccc1NC(=O)CCCCCSc1nnc(-c2ccncc2)n1-c1ccccc1 [Compound 7d, N-(2-aminophenyl)-6-((4-phenyl-5-(pyridin-4-yl)-4H-1,2,4-triazol-3-yl)thio)hexanamide]
- inhibition at 10 µM (K562): 15.1%

- IC50 [3]: 6.19 to 20.9 µM
Structure (SMILES): Cn1c(SCCCCCC(=O)Nc2ccccc2N)nnc1-c1ccncc1 [Compound 7a, N-(2-aminophenyl)-6-((4-methyl-5-(pyridin-4-yl)-4H-1,2,4-triazol-3-yl)thio)hexanamide]

Structure (SMILES): Cn1c(SCCCCCC(=O)NO)nnc1-c1ccncc1 [Compound 6a, N-hydroxy-6-((4-methyl-5-(pyridin-4-yl)-4H-1,2,4-triazol-3-yl)thio)hexanamide]
- Akt phosphorylation [1, 9]: substantial ability to inhibit
- FAK phosphorylation [1, 9]: steady ability to inhibit
- HDAC2 expression [1, 9]: steady ability to inhibit
- GI% against all the tested cells [4]: 40.12–99.81%
- IC50 (HDAC1): 12.3 ± 1.64 µM
- percentage of cells in G1 phase (Caki-1 cells; 1.5 μM): decreased
- percentage of cells in S phase (Caki-1 cells; 1.5 μM): minor changes
- percentage of cells in G2/M phase (Caki-1 cells; control 5.5%): 35%
- Caspase-3 concentration (caspase-3): 515.40 pg/mL
- percentage of cells in G1 phase (A-498 cells [5]; 1.5 μM): decreased
- percentage of cells in S phase (A-498 cells [5]; 1.5 μM): minor changes
- percentage of cells in G2/M phase (A-498 cells [5]; control 18%): 65%
- Caspase-9 Concentration (caspase-9): 28.47 ng/mL
- FAK phosphorylation [6]: decreased
- expression level of HDAC2 [6]: decreased
- STAT3 activation (STAT3 in A-498 cells): inhibit
- Caspase-8 Concentration (caspase-8): 0.888 ng/mL
- FAK phosphorylation [7]: decreased
- expression level of HDAC2 [7]: decreased
- GI% renal cancer cell lines A-498 and Caki-1 [3]: 89.34–99.81%
- IC50 [3]: 0.95 to 2.35 µM

- IC50 [3]: 6.19 to 20.9 µM
Structure (SMILES): O=C(NO)c1ccc(CSc2nnc(-c3ccncc3)n2-c2ccccc2)cc1 [Compound 10d, N-hydroxy-4-(((4-phenyl-5-(pyridin-4-yl)-4H-1,2,4-triazol-3-yl)thio)methyl)benzamide]

- IC50 [3]: 6.19 to 20.9 µM
Structure (SMILES): Nc1ccccc1NC(=O)c1ccc(CSc2nnc(-c3ccncc3)n2-c2ccccc2)cc1 [Compound 11d, N-(2-aminophenyl)-4-(((4-phenyl-5-(pyridin-4-yl)-4H-1,2,4-triazol-3-yl)thio)methyl)benzamide]
- inhibition at 10 µM (HCT116): 45.4%

- IC50 [3]: 0.95 to 2.35 µM
Structure (SMILES): C=CCn1c(SCc2ccc(C(=O)Nc3ccccc3N)cc2)nnc1-c1ccncc1 [Compound 11c, 4-(((4-allyl-5-(pyridin-4-yl)-4H-1,2,4-triazol-3-yl)thio)methyl)-N-(2-aminophenyl)benzamide]
- GI% against all the tested cells [4]: 40.12–99.81%
- GI% renal cancer cell lines A-498 and Caki-1 [3]: 89.34–99.81%

Structure (SMILES): C=CCn1c(SCCCCCC(=O)Nc2ccccc2N)nnc1-c1ccncc1 [Compound 7c, 6-((4-allyl-5-(pyridin-4-yl)-4H-1,2,4-triazol-3-yl)thio)-N-(2-aminophenyl)hexanamide]
- GI% against all the tested cells [4]: 40.12–99.81%
- FAK phosphorylation [6]: entirely blocked
- FAK phosphorylation [7]: entirely blocked
- GI% renal cancer cell lines A-498 and Caki-1 [3]: 89.34–99.81%
- IC50 [3]: 0.95 to 2.35 µM

- IC50 [3]: 0.95 to 2.35 µM
Structure (SMILES): O=C(O)CCCCCSc1nnc(-c2ccncc2)n1-c1ccccc1 [Compound 5d, 6-((4-phenyl-5-(pyridin-4-yl)-4H-1,2,4-triazol-3-yl)thio)hexanoic acid]
- GI% against all the tested cells [4]: 40.12–99.81%
- GI% renal cancer cell lines A-498 and Caki-1 [3]: 89.34–99.81%

- IC50 [3]: 6.19 to 20.9 µM
Structure (SMILES): Cn1c(SCc2ccc(C(=O)Nc3ccccc3N)cc2)nnc1-c1ccncc1 [Compound 11a, N-(2-aminophenyl)-4-(((4-methyl-5-(pyridin-4-yl)-4H-1,2,4-triazol-3-yl)thio)methyl)benzamide]
